Test results taken from article PMC8742467, “Therapeutical interference with the epigenetic landscape of germ cell tumors: a comparative drug study and new mechanistical insights” (Clinical Epigenetics, 2022).

Assays:
[1] = system: DNA methylation (5mC, 5hmC) in 2102EP cells; test: DNA slot blot (5mC, 5hmC); assay type: cell-based, Human; details: 24 h, solvent control set to 100%
Description: Purity of DNA was verified using NanoDrop 260/280 ratio and agarose gel electrophoresis. DNA was diluted in H2O to 200 ng, 100 ng and 50 ng in 200 µl per slot. Slot-Blotter device (Carl Roth GmbH + Co KG, Karlsruhe, Germany) was assembled as according to the manual. DNA was blotted onto a positively charged nylon membrane (Carl Roth GmbH + Co KG, Karlsruhe, Germany) using vacuum application. Three identical membranes were prepared. The membranes were air-dried for 15—20 min and UV-crosslinked (20 s (s), 1200 mJ/cm^2). One membrane was stained with methylene blue (0.02% methylene blue (Merck Millipore, Darmstadt, Germany) in 0.3 M sodium acetate (pH 5.2)) to validate DNA loading across the samples. The remaining two membranes were blocked in 5% milk powder in PBST for 1 h at RT. Membranes were incubated with 5mC or 5hmC antibody overnight at 4 °C. After washing, membranes were incubated with secondary antibody for 2 h at RT. Signals were detected using the ChemiDoc Imaging Systems (Bio-Rad Laboratories, Feldkirchen, Germany).

2102EP (EC) = test: XTT cell viability assay, 2102EP; assay type: cell-based; details: Homo sapiens, 48 h, read-out: EC50 colour/symbol code, EC 2102EP
Summary of the method: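 EC50 values come from XTT viability curves. Each drug concentration, alongside solvent controls, was tested in quadruplicate on cells plated one day earlier at 5 × 10^3 per well.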

[2] = system: histone modifications in 2102EP cells; test: Mass spectrometry analysis of histone modifications (Mod Spec); assay type: cell-based, Human
Summary of the method: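 2102EP cells were treated for 16 h with EC50 concentrations of Quisinostat, JIB-04, Chaetocin, MZ-1, LP99, PRT4165 or GSK343, with DMSO as solvent control. After trypsin harvest, histones were extracted and analysed by mass spectrometry. Raw data were converted to z-scores.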

[3] = system: renal cell carcinoma (RCC) cell lines; test: XTT cell viability assay, RCC cell lines; assay type: cell-based; details: Homo sapiens; mean of three cell lines, 48 h
Description: (§1) The […] (XTT) assays were performed as described previously. In summary, for GCT and fibroblast cell lines 5 × 10^3 cells (3 × 10^3 for UC, PCa and RCC cell lines) per 96-well were seeded and different drug concentrations (see Additional file 2: Fig. S2, Additional file 3: Fig. S3) or corresponding solvents were added to the cells the following day. For drug details see Additional file 12: Table S2 C. Each condition was analyzed in four technical replicates and EC50 values were calculated by GraphPad Prism v8.

2102EP-R = test: Flow cytometry apoptosis (Annexin V/PI), 2102EP-R; assay type: cell-based, Human; details: EC50, 16 h, compared to the parental cell line
Description: For Annexin V/PI staining, cells were washed with Annexin V Binding Buffer before being resuspended in 70 µl Annexin V Binding Buffer and 2.5 μl Annexin V FITC-conjugate (both Miltenyi Biotec, Bergisch Gladbach, Germany) and 15 µg PI (Sigma-Aldrich, Taufkirchen, Germany) and incubated in the dark at room temperature for 15 min. 500 µl of Annexin V Binding Buffer was added before measurement.

[4] = system: EC-R (cisplatin-resistant embryonal carcinoma subclones); test: XTT cell viability assay, mean per entity EC-R; assay type: cell-based; details: Homo sapiens, after 48 h
Description: as §1

[5] = system: PRKCB, PRKD1, HDAC9, CSF1R expression in GCT cells; test: Quantitative RT-PCR of co-treatment target genes; assay type: cell-based, Human; details: 0.2 × EC50, 0.5 × EC50 and EC50
Description: Quantitative RT-PCR (qRT-PCR) was performed as described previously. A total amount of 1 µg of RNA was in-vitro transcribed into cDNA by using Oligo(dT)18 Primer and Maxima H Minus Reverse Transcriptase (200 U/µL) (all Thermo Fisher Scientific). qRT-PCR runs were performed on a 384-well C1000 cycler (BioRad, Feldkirchen, Germany). All samples were analyzed in technical triplicates using 7.34 ng of cDNA for each replicate and the SYBR-green-based Luna Universal qPCR Master Mix (New England Biolabs, Frankfurt am Main, Germany). At the end of each run, melting curve analyses were performed. Oligonucleotide sequences are given in the supplement (Additional file 12: Table S2 B).

[6] = system: CC-R (cisplatin-resistant choriocarcinoma subclones); test: XTT cell viability assay, mean per entity CC-R; assay type: cell-based; details: Homo sapiens, after 48 h
Description: as §1

[7] = 2102EP cells, Mod Spec raw data
[8] = 2102EP, EC50, 16 h, vs solvent control

CN1C(=O)[C@@]23C[C@]4([C@]56C[C@@]78SS[C@@](CO)(C(=O)N7[C@H]5Nc5ccccc56)N(C)C8=O)c5ccccc5N[C@@H]4N2C(=O)[C@]1(CO)SS3 [Chaetocin]
5mC levels compared to solvent control [1]: 85%
EC50 (2102EP (EC)): < 1000 nM
H1.4: K25AC, % of peptide pool [2, 7]: 0.02988%
H1.4: K25ME1, % of peptide pool [2, 7]: 2.019%
H1.4: K25ME2, % of peptide pool [2, 7]: 0.1186%
H1.4: K25ME3, % of peptide pool [2, 7]: 0.02061%
H1.4: K25UN, % of peptide pool [2, 7]: 97.812%
H2A1: K13AC, % of peptide pool [2, 7]: 0.0146%
H2A1: K13UN, % of peptide pool [2, 7]: 99.9854%
H2A1: K15AC, % of peptide pool [2, 7]: 0.01159%
H2A1: K15UB, % of peptide pool [2, 7]: 0%
H2A1: K15UN, % of peptide pool [2, 7]: 99.9884%
H2A3: K13AC, % of peptide pool [2, 7]: 0.04893%
H2A3: K13UN, % of peptide pool [2, 7]: 99.9511%
H2A3: K15AC, % of peptide pool [2, 7]: 0.07659%
H2A3: K15UB, % of peptide pool [2, 7]: 0%
H2A3: K15UN, % of peptide pool [2, 7]: 99.9234%
H2A: K5AC, % of peptide pool [2, 7]: 14.3188%
H2A: K5UN, % of peptide pool [2, 7]: 85.6812%
H2A: K9AC, % of peptide pool [2, 7]: 1.675%
H2A: K9UN, % of peptide pool [2, 7]: 98.3248%
H2A: K36AC, % of peptide pool [2, 7]: 0.05938%
H2A: K36UN, % of peptide pool [2, 7]: 99.9406%
H3: K9AC, % of peptide pool [2, 7]: 0.8662%
H3: K9ME1, % of peptide pool [2, 7]: 34.1794%
H3: K9ME2, % of peptide pool [2, 7]: 24.6408%
H3: K9ME3, % of peptide pool [2, 7]: 2.426%
H3: K9UN, % of peptide pool [2, 7]: 37.8878%
H3: K14AC, % of peptide pool [2, 7]: 29.886%
H3: K14UN, % of peptide pool [2, 7]: 70.114%
H3: K18AC, % of peptide pool [2, 7]: 12.8748%
H3: K18ME1, % of peptide pool [2, 7]: 0.1543%
H3: K18UN, % of peptide pool [2, 7]: 86.9709%
H3: K23AC, % of peptide pool [2, 7]: 19.2205%
H3: K23ME1, % of peptide pool [2, 7]: 0.03585%
H3: K23UN, % of peptide pool [2, 7]: 80.7437%
H3: K56AC, % of peptide pool [2, 7]: 0.2394%
H3: K56ME1, % of peptide pool [2, 7]: 0.9888%
H3: K56UN, % of peptide pool [2, 7]: 98.7718%
H3: K64AC, % of peptide pool [2, 7]: 0.03741%
H3: K64UN, % of peptide pool [2, 7]: 99.9626%
H3: K79AC, % of peptide pool [2, 7]: 1.813%
H3: K79ME1, % of peptide pool [2, 7]: 15.4225%
H3: K79ME2, % of peptide pool [2, 7]: 5.182%
H3: K79ME3, % of peptide pool [2, 7]: 17.8629%
H3: K79UN, % of peptide pool [2, 7]: 59.719%
H3: K122AC, % of peptide pool [2, 7]: 0.1813%
H3: K122UN, % of peptide pool [2, 7]: 99.8187%
H3: Q19ME1, % of peptide pool [2, 7]: 0.03077%
H3: Q19UN, % of peptide pool [2, 7]: 99.9692%
H3: Q55ME1, % of peptide pool [2, 7]: 0.2687%
H3: Q55UN, % of peptide pool [2, 7]: 99.7313%
H3: R42ME2, % of peptide pool [2, 7]: 2.246%
H3: R42UN, % of peptide pool [2, 7]: 97.7541%
H3: R49ME2, % of peptide pool [2, 7]: 6.84%
H3: R49UN, % of peptide pool [2, 7]: 93.1597%
H3R2UN: K4AC, % of peptide pool [2, 7]: 0.1823%
H3R2UN: K4ME1, % of peptide pool [2, 7]: 17.5028%
H3R2UN: K4ME2, % of peptide pool [2, 7]: 0.3386%
H3R2UN: K4ME3, % of peptide pool [2, 7]: 0.1482%
H3R2UN: K4UN, % of peptide pool [2, 7]: 81.8281%
H3R2UN: Q5ME1, % of peptide pool [2, 7]: 0.09687%
H3R2UN: Q5UN, % of peptide pool [2, 7]: 99.9031%
H3.1: K27AC, % of peptide pool [2, 7]: 2.462%
H3.1: K27ME1, % of peptide pool [2, 7]: 46.5828%
H3.1: K27ME2, % of peptide pool [2, 7]: 19.949%
H3.1: K27ME3, % of peptide pool [2, 7]: 2.906%
H3.1: K27UN, % of peptide pool [2, 7]: 28.0999%
H3.1: K36AC, % of peptide pool [2, 7]: 0.3566%
H3.1: K36ME1, % of peptide pool [2, 7]: 14.5986%
H3.1: K36ME2, % of peptide pool [2, 7]: 44.4208%
H3.1: K36ME3, % of peptide pool [2, 7]: 21.3142%
H3.1: K36UN, % of peptide pool [2, 7]: 19.3097%
H3.3: K27AC, % of peptide pool [2, 7]: 5.581%
H3.3: K27M, % of peptide pool [2, 7]: 0%
H3.3: K27ME1, % of peptide pool [2, 7]: 45.9713%
H3.3: K27ME2, % of peptide pool [2, 7]: 14.9979%
H3.3: K27ME3, % of peptide pool [2, 7]: 5.393%
H3.3: K27UN, % of peptide pool [2, 7]: 28.0564%
H3.3: K36AC, % of peptide pool [2, 7]: 3.238%
H3.3: K36ME1, % of peptide pool [2, 7]: 13.4078%
H3.3: K36ME2, % of peptide pool [2, 7]: 46.3675%
H3.3: K36ME3, % of peptide pool [2, 7]: 22.3154%
H3.3: K36UN, % of peptide pool [2, 7]: 14.6709%
H4: K5AC, % of peptide pool [2, 7]: 7.567%
H4: K5UN, % of peptide pool [2, 7]: 92.4335%
H4: K8AC, % of peptide pool [2, 7]: 11.8437%
H4: K8UN, % of peptide pool [2, 7]: 88.1563%
H4: K12AC, % of peptide pool ([2]; 2102EP cells, Mod Spec raw data, histone H4 K12 acetylated): 6.89 % of peptide pool
H4: K12UN, % of peptide pool ([2]; 2102EP cells, Mod Spec raw data, histone H4 K12 unmodified): 93.1103 % of peptide pool
H4: K16AC, % of peptide pool ([2]; 2102EP cells, Mod Spec raw data, histone H4 K16 acetylated): 48.815 % of peptide pool
H4: K16UN, % of peptide pool ([2]; 2102EP cells, Mod Spec raw data, histone H4 K16 unmodified): 51.185 % of peptide pool
H4: K20AC, % of peptide pool ([2]; 2102EP cells, Mod Spec raw data, histone H4 K20 acetylated): 23.7533 % of peptide pool
H4: K20ME2, % of peptide pool ([2]; 2102EP cells, Mod Spec raw data, histone H4 K20 dimethylated): 42.9015 % of peptide pool
H4: K20ME1, % of peptide pool ([2]; 2102EP cells, Mod Spec raw data, histone H4 K20 monomethylated): 5.498 % of peptide pool
H4: K20ME3, % of peptide pool ([2]; 2102EP cells, Mod Spec raw data, histone H4 K20 trimethylated): 1.56 % of peptide pool
H4: K20UN, % of peptide pool ([2]; 2102EP cells, Mod Spec raw data, histone H4 K20 unmodified): 26.2873 % of peptide pool
change of histone modifications of the expected mode of action (Mod Spec) [2, 8]: reduction of H3K9me2/me3
off-target changes of histone modifications (Mod Spec) [2, 8]: increase of H4K20ac
EC50 [3]: 156 nM
apoptosis induction in 2102EP-R (2102EP-R): did not induce apoptosis
EC50 [4]: 161 nM
PRKD1 expression (qRT-PCR) [5]: upregulation
EC50 [6]: 233 nM
